Results: patent US5167963A, “8,10-dideazatetrahydrofolic acid derivatives” (SRI International, priority 1990, dated 1992)
Read-outs that look alike come from different tables or passages of the source.

Key:
[1] = biological target: T1, glycinamide ribotide formyl transferase (FGAR) (Lacticaseibacillus casei, UniProt A0AAN1KEB7); test: Enzyme assay for FGAR (glycinamide ribotide formyl transferase) inhibition; type: biochemical, Lactobacillus casei; settings: in words
T1 sequence (A0AAN1KEB7 1-189): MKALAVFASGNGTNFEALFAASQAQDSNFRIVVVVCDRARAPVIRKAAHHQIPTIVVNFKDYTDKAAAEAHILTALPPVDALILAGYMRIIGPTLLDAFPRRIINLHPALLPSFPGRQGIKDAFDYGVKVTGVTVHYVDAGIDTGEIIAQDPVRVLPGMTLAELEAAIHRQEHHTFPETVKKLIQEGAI
Experimental: Inhibition of the glycinamide ribotide formyl transferase (FGAR) and amino-imidazole carboxamide ribotide formyl transferase (AICAR) enzymes was determined by the following test procedure.
Lactobacillus casei extract protein (20 μg) is incubated with 45 μmol of Tris-HCl buffer; pH 7.5, 90 μmol of 2-mercaptoethanol, 0.20 μmol of α,β-glycine-amideribotide and 50 nmol of (6R)-10-formyltetrahydrofolate in 0.9 ml for 1 minute at 30° C. The formation of tetrahydrofolate is followed by change in the ultraviolet maximum at 298 nm. For assay of inhibition the test compounds are added along with the 6R-10-formyl FAHy and the concentration that inhibits the reaction by 50% (Ic50) is determined.

[2] = Cytotoxicity (focus and potency of cytotoxic action); type: cell-based; settings: in words
dihydrofolate reductase = settings: in words; from prior literature/patents; cited from earlier work
[3] = in words; DeGraw et al; cited from earlier work
L1210 cells = test: Growth inhibition assay for L1210 cells; type: cell-based; settings: Mus musculus; 72 hours, murine L1210 cells, RPMI 1640 with 10% fetal calf serum
Text: Murine L1210 cells were obtained as intraperitoneal ascites suspensions from BD2F1 mice. […] Cultures in the logarithmic stage of growth were harvested, resuspended and exposed to test compounds at varying concentrations. Growth of controls was monitored to verify that the growth pattern was normal.

L1210 leukemia = settings: in words, Taylor et al, U.S. Pat. No. 4,684,653, cited from earlier work
thymidylate synthase = settings: in words; J. A. R. Mead et al., Cancer Research (1966); cited from earlier work

SMILES | inhibition of dihydrofolate reductase (dihydrofolate reductase) | IC50 (L1210 cells) | further results
Nc1nc2c(c(=O)[nH]1)CC(CCc1ccc(C(=O)N[C@@H](CCC(=O)O)C(=O)O)cc1)CC2 (stereo partly drawn) [5,8, 10-trideaza FH4] |  |  | inhibition of glycinamide ribotide transformylase (GAR transformylase, FGAR) [1]: devoid of enzyme or cytotoxic action; cytotoxic action [2]: devoid of enzyme or cytotoxic action
Nc1nc2ccc(CCc3ccc(C(=O)N[C@@H](CCC(=O)O)C(=O)O)cc3)nc2c(=O)[nH]1 [8,10-dideazafolic acid] | did not significantly affect DHFR |  | antifolate activity [3]: active antifolates
Nc1nc2ccc(CNc3ccc(C(=O)N[C@@H](CCC(=O)O)C(=O)O)cc3)nc2c(=O)[nH]1 [8-deazafolic acid] | did not significantly affect DHFR |  | 
CN(Cc1cnc2nc(N)nc(N)c2n1)c1ccc(C(=O)N[C@@H](CCC(=O)O)C(=O)O)cc1 [Compound 1, methotrexate] | inhibiting dihydrofolate reductase (DHFR) | 4.3 nM | 
Nc1nc2c(c(=O)[nH]1)CC(CCc1ccc(C(=O)N[C@@H](CCC(=O)O)C(=O)O)cc1)CN2 (stereo partly drawn) [Compound 2, N-(4-[2-(2-amino-4-hydroxy-5,6,7,8-tetrahydropyrido[2,3-d]pyrimidin-6-yl)-ethyl]benzoyl)-L-glutamic acid] | weak inhibitor of dihydrofolate reductase | 42 nM | inhibition of glycinamide ribotide transformylase (GAR transformylase, FGAR) ([1]; listed as DDTHF): potent inhibitor of GAR transformylase; inhibition of glycinamide ribotide transformylase (GAR transformylase, FGAR) ([1]; listed as Taylor et al compound): clearly an inhibitor of FGAR; cytotoxic action [2]: potent cytotoxin; activity against L1210 leukemia (L1210 leukemia; listed as N-(4-[2-(2-amino-4-hydroxy-5,6,7,8-tetrahydropyrido[2,3-d]pyrimidin-6-yl)- e thy): good activity against L-1210 leukemia which is comparable to methotrexate; activity against L1210 leukemia (L1210 leukemia; listed as N-(4-[2-(2-amino-4-hydroxy-5,6,7,8-tetrahydropyrido[2,3-d]pyrimidin-6-yl)- ethyl): good activity against L1210 leukemia which is comparable to methotrexate
Nc1nc2c(c(=O)[nH]1)NC(CCc1ccc(C(=O)N[C@@H](CCC(=O)O)C(=O)O)cc1)CC2 (stereo partly drawn) [Compound 3, 8,10-Dideaza-5,6,7,8-tetrahydrofolic Acid] |  | 96.8 nM | 
CN1c2c(nc(N)[nH]c2=O)CCC1CCc1ccc(C(=O)N[C@@H](CCC(=O)O)C(=O)O)cc1 (stereo partly drawn) [Compound 4, 5-Methyl-8,10-dideaza-5,6,7,8-tetrahydrofolic Acid] |  | 38.2 nM | 
Nc1nc2c(c(=O)[nH]1)N(C=O)C(CCc1ccc(C(=O)NC(CCC(=O)O)C(=O)O)cc1)CC2 (stereo not drawn) [Compound 5] |  | 657 nM | 
Nc1nc2c(c(=O)[nH]1)N[C@@H](CCNc1ccc(C(=O)NC(CCC(=O)O)C(=O)O)cc1)CN2 (stereo partly drawn) [tetrahydrohomofolate] |  |  | inhibition of thymidylate synthetase in vitro (thymidylate synthase): potent inhibitor
